Test results taken from patent US20090215742A1, “AMIDE […]” (PFIZER, INC., priority 2005, published 2009).

Molecular target: T1, HSP-90 (Homo sapiens, UniProt P07900)
T1 construct: fused on or other part: 6-His tag at the C-terminus
Experiment: HSP-90 SPA (scintillation proximity assay) competition binding assay, displacement of tritiated propyl-Geldanamycin
Conditions: for inhibition at 1 µM: read-out: % inhibition @ 1 μM; for inhibition at 10 µM: read-out: % inhibition @ 10 μM

Row | Compound | inhibition at 1 µM [%] | inhibition at 10 µM [%]
1 | O=C(c1ccc(O)cc1O)N1CCN(c2nc3ccc(Cl)cc3o2)CC1 [Example 125, 4-{[4-(6-chloro-1,3-benzoxazol-2-yl)piperazin-1-yl]carbonyl}benzene-1,3-diol] | 22.4 | 59.8
2 | O=C(c1ccc(O)cc1O)N1CCN(c2nc(-c3ccccc3C(F)(F)F)cc(=O)[nH]2)CC1 [Example 126, 2-[4-(2,4-dihydroxybenzoyl)piperazin-1-yl]-6-[2-(trifluoromethyl)phenyl]pyrimidin-4(3H)-one] | 35.9 | 71
3 | COc1ccc2oc(N3CCN(C(=O)c4ccc(O)cc4O)CC3)nc2c1 [Example 127, 4-{[4-(5-methoxy-1,3-benzoxazol-2-yl)piperazin-1-yl]carbonyl}benzene-1,3-diol] | 21.1 | 60.3
4 | O=C(c1ccc(O)cc1O)N1CCOCC2(CC(c3cc(F)cc(F)c3)=NO2)C1 (stereo not drawn) [Example 128, 4-{[3-(3,5-difluorophenyl)-1,7-dioxa-2,10-diazaspiro[4.6]undec-2-en-10-yl]carbonyl}benzene-1,3-diol] | 31.2 | 73.1
5 | COc1cc(C2=NOC3(COCCN(C(=O)c4ccc(O)cc4O)C3)C2)ccc1F (stereo not drawn) [Example 129, 4-{[3-(4-fluoro-3-methoxyphenyl)-1,7-dioxa-2,10-diazaspiro[4.6]undec-2-en-10-yl]carbonyl}benzene-1,3-diol] | 60.5 | 88.5
6 | O=C(c1ccc(O)cc1O)N1CCOCC2(CC(c3ccccc3)=NO2)C1 (stereo not drawn) [Example 130] | 46.2 | 82.4
7 | O=C(c1ccc(O)cc1O)N1CCOCC2(CC(c3c(F)cccc3F)=NO2)C1 (stereo not drawn) [Example 131, 4-{[3-(2,6-difluorophenyl)-1,7-dioxa-2,10-diazaspiro[4.6]undec-2-en-10-yl]carbonyl}benzene-1,3-diol] | 24.7 | 69.6
8 | COc1ccc(F)c(C2=NOC3(COCCN(C(=O)c4ccc(O)cc4O)C3)C2)c1 (stereo not drawn) [Example 132, 4-{[3-(2-fluoro-5-methoxyphenyl)-1,7-dioxa-2,10-diazaspiro[4.6]undec-2-en-10-yl]carbonyl}benzene-1,3-diol] | 33.3 | 73.9
9 | O=C(c1ccc(O)cc1O)N1CCSCC1 [Example 133, 4-(thiomorpholin-4-ylcarbonyl)benzene-1,3-diol] | 42.6 | 80
10 | O=C(c1ccc(O)cc1O)N1CCc2nnc(-c3cccc4ccccc34)n2CC1 [Example 134, (2,4-Dihydroxy-phenyl)-(3-naphthalen-1-yl-4,5,7,8-tetrahydro-1,2,3a,6-tetraaza-azulen-6-yl)-methanone] | 3.7 | 37.6
11 | O=C(c1ccc(O)cc1O)N1CCOC[C@@H]1c1ccccc1 [Example 135, 4-[(3-phenylmorpholin-4-yl)carbonyl]benzene-1,3-diol] | 15.9 | 44.7
12 | O=C(c1ccc(O)cc1O)N1CCn2cnnc2C1 [Example 136, 4-(5,6-dihydro[1,2,4]triazolo[4,3-a]pyrazin-7(8H)-ylcarbonyl)benzene-1,3-diol] | 10.4 | 47.8
13 | O=C(c1ccc(CO)cc1)N1Cc2ccccc2C1 [Example 184, [4-(1,3-dihydro-2H-isoindol-2-ylcarbonyl)phenyl] methanol] | – | 0
14 | O=C(c1cccc2cccnc12)N1Cc2ccccc2C1 [Example 187, 8-(1,3-dihydro-2H-isoindol-2-ylcarbonyl) quinoline] | 0 | –
15 | O=C(c1cc(Cl)cc(Cl)c1O)N1Cc2ccccc2C1 [Example 208, 2,4-dichloro-6-(1,3-dihydro-2H-isoindol-2-ylcarbonyl)phenol] | – | 0
